As usually defined, the IC50 is the concentration that gives 50% inhibition. For orientation: inhibition means the relative decrease from the control value, in per cent. Low values mean a response near the control, high ones a response far below the control.

Results on 7 molecules are retold here after patent US5965622A, “Desformoterol and process for its preparation” (Sepracor Inc., priority 1998, dated 1999).

The target of data set [1] is human β1-adrenergic receptor (Homo sapiens, UniProt P08588). Briefly: binding to human β1-adrenergic receptor (competition curves). On the procedure: (§1) The four isomers of desformoterol, (R,R)-, (S,S)-, (R,S)-, and (S,R)-, and a 1:1 mixture of the (R,R)- and the (S,S)-enantiomers, were screened, in duplicate, at three concentrations (10^-9, 10^-7, 10^-5 M) for binding to human β1 and β2 -adrenergetic receptors. The compounds were then tested at ten concentrations in duplicate in order to obtain full competition curves. Reference compounds were simultaneously tested at eight concentrations.

Data set [2] deals with human β2-adrenergic receptor (Homo sapiens, UniProt P07550). In words: binding to human β2-adrenergic receptor (competition curves). The conditions noted are these: for adrenergic receptor agonist selectivity, in words: binding studies. The method, then:
as §1

The conditions of data set [3]: when inhaled; background statement; cited from earlier work.
A short description of data set [4]: stability of desformoterol according to conditions. It counts as physicochemical. The conditions noted are these: pH of the environment. From the text:
It has been observed that the stability of desformoterol can vary according to conditions.

[5] abbreviates: human β1-adrenergic receptor, ten concentrations in duplicate (reference compounds eight), read-out: IC50 β1.
Where [6] appears, read: human β2-adrenergic receptor, ten concentrations in duplicate (reference compounds eight), read-out: IC50 β2.

“Also recorded” adds a separate entry of the source. Read-outs that look alike come from different tables or passages of the source.

Chain of human β2-adrenergic receptor (P07550 whole entry): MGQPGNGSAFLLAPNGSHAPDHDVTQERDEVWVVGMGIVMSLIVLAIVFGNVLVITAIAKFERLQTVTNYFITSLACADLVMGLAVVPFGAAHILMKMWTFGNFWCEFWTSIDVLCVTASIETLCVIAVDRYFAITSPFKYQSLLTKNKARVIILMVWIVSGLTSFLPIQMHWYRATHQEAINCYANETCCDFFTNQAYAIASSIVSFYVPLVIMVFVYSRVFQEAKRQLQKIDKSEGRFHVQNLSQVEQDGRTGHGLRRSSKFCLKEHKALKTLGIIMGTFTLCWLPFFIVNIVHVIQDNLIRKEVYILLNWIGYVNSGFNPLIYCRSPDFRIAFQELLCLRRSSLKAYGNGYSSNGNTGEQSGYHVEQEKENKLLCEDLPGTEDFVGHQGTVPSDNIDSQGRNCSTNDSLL
Chain of human β1-adrenergic receptor (P08588 whole entry): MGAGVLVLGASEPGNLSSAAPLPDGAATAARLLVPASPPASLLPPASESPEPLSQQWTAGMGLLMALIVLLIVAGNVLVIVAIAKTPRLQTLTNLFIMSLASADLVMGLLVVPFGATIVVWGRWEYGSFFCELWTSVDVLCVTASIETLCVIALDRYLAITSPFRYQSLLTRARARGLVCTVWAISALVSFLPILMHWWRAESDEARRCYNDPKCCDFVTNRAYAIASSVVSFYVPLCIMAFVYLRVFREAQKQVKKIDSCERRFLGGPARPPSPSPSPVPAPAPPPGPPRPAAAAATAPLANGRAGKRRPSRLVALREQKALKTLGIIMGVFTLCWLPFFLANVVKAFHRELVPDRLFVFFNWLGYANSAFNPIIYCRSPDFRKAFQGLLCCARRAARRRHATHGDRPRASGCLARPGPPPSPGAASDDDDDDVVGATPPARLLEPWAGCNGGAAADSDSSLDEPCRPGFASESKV

As for `COc1ccc(C[C@@H](C)NC[C@H](O)c2ccc(O)c(N)c2)cc1` (relative stereo) [(R,R)-/(S,S)-Racemate of Desformoterol], the IC50 in data set [1] (setting [5]) is 5.14 µM; in data set [2] (setting [6]) it was 0.0813 µM. In data set [2], the “adrenergic receptor agonist selectivity, in words” value is recorded as “highly selective β-adrenergic receptor agonists”. Moreover, the “binding/affinity at β2 site, in words” value in data set [2] (human β2-adrenergic receptor) is “significant binding only at the β2 -site”. For the same molecule, the “β1/β2 Selectivity” value in data set [2] (ratio of IC50 values β1/β2) was 63.

For `COc1ccc(C[C@@H](C)NC[C@H](O)c2ccc(O)c(NC=O)c2)cc1` (relative stereo) [Formoterol], the “bronchodilating effect, in words” value in data set [3] is “long lasting bronchodilating effect”.

Regarding `COc1ccc(C[C@@H](C)NC[C@H](O)c2ccc(O)c(N)c2)cc1` [(R,R)-Desformoterol, (R,R)-3-amino-4-hydroxy-α-[[[2-(4-methoxyphenyl)-1-methylethyl]amino]methyl]-benzenemethanol], the IC50 in data set [1] is 3.18 µM. Also, in data set [2], the IC50 stood at 0.0356 µM and the “adrenergic receptor agonist selectivity, in words” value is reported as “highly selective β-adrenergic receptor agonists”. In data set [2] (human β2-adrenergic receptor), the “binding/affinity at β2 site, in words” value is reported as “significant binding primarily at the β2 -site”. In data set [2] (ratio of IC50 values β1/β2), the “selectivity (β1/β2) for the β2-receptor” value was “approximately 89 fold” and the “β1/β2 Selectivity” value amounted to 89.

As for `COc1ccc(C[C@H](C)NC[C@H](O)c2ccc(O)c(N)c2)cc1` [(R,S)-Desformoterol], the “binding/affinity at β1 site, in words” value in data set [1] (human β1-adrenergic receptor) is listed as “Neither (R,S)- nor (S,R)-desformoterol showed high affinity for the β1 receptor; also recorded: comparable to that of atenolol at the β1 -site”. Besides, the half-maximal inhibitory concentration (IC50) in data set [1] (setting [5]) worked out at 1.79 µM; in data set [2] (setting [6]), 3.14 µM. The “β1/β2 Selectivity” value in data set [2] (ratio of IC50 values β1/β2) was under 1.

On to `COc1ccc(C[C@@H](C)NC[C@@H](O)c2ccc(O)c(N)c2)cc1` [(S,R)-Desformoterol], for which, in data set [1] (at 10^-5 M), the inhibition at 10 µM was 22%. The “binding/affinity at β1 site, in words” value in data set [1] (human β1-adrenergic receptor) is reported as “Neither (R,S)- nor (S,R)-desformoterol showed high affinity for the β1 receptor”. Moreover, the IC50 in data set [2] (setting [6]) came to 1.89 µM.

For the molecule `COc1ccc(C[C@H](C)NC[C@@H](O)c2ccc(O)c(N)c2)cc1` [(S,S)-Desformoterol], the values for the IC50 in data set [1] and in data set [2] were 64.7 µM and over 10 µM, respectively. Further, the “binding/affinity at β1 site, in words” value in data set [1] (human β1-adrenergic receptor) is recorded as “lacked affinity for both β-adrenergic sites”. In data set [2] (human β2-adrenergic receptor), the “binding/affinity at β2 site, in words” value was “lacked affinity for both β-adrenergic sites”. In addition, the “β1/β2 Selectivity” value in data set [2] (ratio of IC50 values β1/β2) is listed as under 6.

As to `COc1ccc(CC(C)NCC(O)c2ccc(O)c(N)c2)cc1` (stereo not drawn) [desformoterol, 3-Amino-4-hydroxy-α-[[[2-(4-methoxyphenyl)-1-methylethyl]amino]methyl]-benzenemethanol], the “adrenergic receptor agonist selectivity, in words” value in data set [2] is “highly selective β2 -adrenergic receptor agonist”. Moreover, the “pH of maximum stability” value in data set [4] is on record as 2.
